From US5514705A, “Epidioxymanadic acids A and B” (PharmaMar, S.A., priority 1994, dated 1996)
Converted amounts (≈) assume the structure as drawn.

What was measured:
Type in all cases: cell-based
P388 (leukemia) = assay: Cytotoxicity against P388 cell line in culture; conditions: Mus musculus; P388 leukemia cells in culture
[1] = tested on: A549 (human lung carcinoma); assay: Cytotoxicity against A549 cell line in culture; conditions: A549 human lung carcinoma cells in culture
[2] = tested on: HT29 (human colon carcinoma); assay: Cytotoxicity against HT29 cell line in culture; conditions: HT-29; HT29 human colon carcinoma cells in culture
MEL-28 (human melanoma) = assay: Cytotoxicity against MEL-28 cell line in culture; conditions: SK-MEL-28; MEL-28 human melanoma cells in culture

Structure (SMILES)	IC50 (P388 (leukemia)) [µg/mL]	IC50 [1] [µg/mL]	IC50 [2] [µg/mL]	IC50 (MEL-28 (human melanoma)) [µg/mL]
C/C=C(C)/C=C/CCC[C@@]1(OC)C[C@H](C)[C@H](CC(=O)O)OO1 [Epidioxymanadic A, epidioxymanadic acid A]	0.5 (≈ 1.6 µM)	1 (≈ 3.2 µM)	2 (≈ 6.4 µM)	5 (≈ 16 µM)
CC/C=C(C)/C=C/CCC[C@@]1(OC)C[C@H](C)[C@H](CC(=O)O)OO1 [Epidioxymanadic B, epidioxymanadic acid B]	0.5 (≈ 1.53 µM)	1 (≈ 3.06 µM)	2 (≈ 6.13 µM)	2.5 (≈ 7.66 µM)
